Source: US5182258A, “Systemic delivery of polypeptides through the eye” (Orbon Corporation, priority 1989, dated 1993)
One block for each compound: values may come before it.

Experiments:
[1] = Absorption of insulin into systemic circulation via the eyes or i.v. (125I blood level); assay type: in vivo, rabbit; conditions: ocular insulin plus leucine-leucine
[2] = for effect of peptidase inhibitors on systemic absorption of TRH: 4 mM, Bestatin, 60 uM, D,L-Thiorphan, 0.6 uM, ocular TRH
[3] = Blood enkephalin-equivalent concentration after ocular or i.v. enkephalin
[4] = Enkephalin-equivalent remaining in eye tissues at the end of 12 hr experiment

Structure (SMILES): CC(C)C[C@H](NC(=O)[C@@H](N)CC(C)C)C(=O)O [Leu-Leu, leucine-leucine]
effect of added peptidase inhibitor on insulin absorption [1]: did not significantly improve insulin absorption
effect of peptidase inhibitors on systemic absorption of TRH ([2]; Leu-Leu): did not significantly enhance the systemic absorption of TRH
effect of peptidase inhibitor on systemic absorption of LHRH ([2]; Leu-Leu, 5 mM, ocular LHRH): did increase the systemic absorption of LHRH significantly
effect of peptidase inhibitor on systemic absorption of glucagon ([2]; Leu-Leu, 5 mM, ocular glucagon): did not increase the systemic absorption of glucagon

eye drop concentration giving a therapeutic blood concentration ([2]; rabbit, in vivo): ≥ 0.0025%
peak blood TRH concentration ([2]; rabbit, in vivo): 138 ng/mL
steady state blood TRH concentration after the peak ([2]; rabbit, in vivo): 60 ng/mL
time from the peak to steady state ([2]; rabbit, in vivo): 9 h
time to peak ([2]; rabbit, in vivo): 60 min
Structure (SMILES): NC(=O)[C@@H]1CCCN1C(=O)[C@H](Cc1cnc[nH]1)NC(=O)[C@@H]1CCC(=O)N1 [TRH, Thyrotrophin-releasing hormone]

eye drop concentration sufficient to reach therapeutic effective blood concentration ([2]; rabbit, in vivo): 0.005%
Structure (SMILES): CC(C)C[C@H](NC(=O)CNC(=O)[C@H](Cc1ccc(O)cc1)NC(=O)[C@H](CO)NC(=O)[C@H](Cc1c[nH]c2ccccc12)NC(=O)[C@H](Cc1cnc[nH]1)NC(=O)[C@@H]1CCC(=O)N1)C(=O)N[C@@H](CCCNC(=N)N)C(=O)N1CCC[C@H]1C(=O)NCC(N)=O [LHRH, luteinizing hormone-releasing hormone]

Structure (SMILES): CC(C)C[C@H](NC(=O)[C@H](Cc1ccccc1)NC(=O)CNC(=O)CNC(=O)[C@@H](N)Cc1ccc(O)cc1)C(=O)O [enkephalin, Leucine-enkephalin (5-L-leucine)]
Tx of decline of blood concentration ([3]; 50 ug i.v.): less than 30 min
lowest point of blood concentration ([3]; 50 ug i.v., in 5 hrs): 22 ng/mL
plateau blood enkephalin concentration ([3]; 1% enkephalin instilled into eye): 72 ng/mL
plateau blood enkephalin concentration ([3]; 5% enkephalin instilled into eye): 233 ng/mL
actual concentration of enkephalin in the lens compared with other tissues [4]: lowest among all tissues

Structure (SMILES): O=C(O)CNC(=O)C(CS)Cc1ccccc1 (racemic) [D,L-Thiorphan, D,L-thiorphan]
effect of peptidase inhibitors on systemic absorption of TRH ([2]; Leu-Leu): did not significantly enhance the systemic absorption of TRH
